Measured values taken from PMC3278406 (PLoS ONE, 2012).
“Also recorded” adds a separate entry of the source.

Biological target: Stx2 toxoid (Escherichia phage 933W, UniProt P09386)
Type: binding, Escherichia coli O157:H7

Sequence of Stx2 toxoid (P09386 whole entry, looked up): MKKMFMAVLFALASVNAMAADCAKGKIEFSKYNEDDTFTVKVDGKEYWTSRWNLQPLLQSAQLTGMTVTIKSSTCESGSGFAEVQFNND

Molecule | Stx2 binding | other results
CC(C)CCC[C@@H](C)[C@H]1CC[C@H]2[C@@H]3CC[C@H]4CCCC[C@]4(C)[C@H]3CC[C@]12C [5αCh, 5-α-Cholestane] | – | Stx2 binding to Gb3 in the presence of sterol and PC: failed to support binding
CCCCCCCCCCCCC/C=C/[C@@H](O)[C@@H](N)CO[C@@H]1O[C@H](CO)[C@@H](O[C@@H]2O[C@H](CO)[C@H](O[C@H]3O[C@H](CO)[C@H](O)[C@H](O)[C@H]3O)[C@H](O)[C@H]2O)[C@H](O)[C@H]1O [Lyso-Gb3, Lyso-globotriaosylsphingosine] | did not bind | –
CC(C)CCC[C@@H](C)[C@H]1CC[C@H]2[C@@H]3CC=C4C[C@@H](O)CC[C@]4(C)[C@H]3CC[C@]12C [cholesterol] | – | change of Stx2 binding to Gb3 in the absence of cholesterol: statistically significant decrease; change of Stx2 binding to Gb3 in the presence of cholesterol alone: statistically significant increase
Asialo GM1 gangliosides [aGM1] | failed to support binding | –
Asialo GM2 gangliosides [aGM2] | failed to support binding | –
Galactosyl ceramide [Gal-Cer] | failed to support binding | –
Globotetraosyl ceramide [Gb4] | increased binding | Kd (read-out: apparent Kd of Stx2): 14 nM
Globotriaosyl ceramide, Ceramide trihexoside [Gb3] | poor binding; also recorded: increased binding | concentration of Stx2 needed to reach saturated binding: above 1 µM
Glucosyl ceramide [Glc-Cer] | failed to support binding | –
Lactosyl ceramide [Lac-Cer] | failed to support binding | –
